Source: patent US8883826B2, “Alkynyl derivatives as modulators of metabotropic glutamate receptors” (Addex Pharma SA, priority 2004, dated 2014)

Target: T1, mGluR5 (Rattus norvegicus, UniProt P31424)
T1 construct: tissue Charles River Laboratories; host or cells: rat brain cortex membranes (Sprague-Dawley)
Experiment: mGluR5 binding assay ([3H]-MPEP radioligand competition)
Settings: competition with 3 nM [3H]-MPEP, rat brain cortical membranes, 1 h at 4 °C; mean of at least three independent experiments in duplicate
Source text: Activity of compounds of the invention was examined following a radioligand binding technique using whole rat brain and tritiated 2-methyl-6-(phenylethynyl)-pyridine ([^3H]-MPEP) as a ligand following similar methods than those described in F. Gasparini et al. Bioorg. Med. Chem. Lett. 2002, 12, 407-409 and in J. F. Anderson et al. J. Pharmacol. Exp. Ther. 2002, 303, 3, 1044-1051.
Cortices were dissected out from brains of 200-300 g Sprague-Dawley rats (Charles River Laboratories, L'Arbresle, France). Tissues were homogenized in 10 volumes (vol/wt) of ice-cold 50 mM Hepes-NaOH (pH 7.4) using a Polytron disrupter (Kinematica AG, Luzern, Switzerland) and centrifuged for 30 min at 40,000 g. (4° C.). The supernatant was discarded and the pellet washed twice by resuspension in 10 volumes 50 mM HEPES-NaOH. Membranes were then collected by centrifugation and washed before final resuspension in 10 volumes of 20 mM HEPES-NaOH, pH 7.4. Protein concentration was determined by the Bradford method (Bio-Rad protein assay, Reinach, Switzerland) with bovine serum albumin as standard.
[^3H]-MPEP Binding Experiments:
Membranes were thawed and resuspended in binding buffer containing 20 mM HEPES-NaOH, 3 mM MgCl2, 3 mM CaCl2, 100 mM NaCl, pH 7.4. Competition studies were carried out by incubating for 1 h at 4° C.: 3 nM [^3H]-MPEP (39 Ci/mmol, Tocris, Cookson Ltd, Bristol, U.K.), 50 μg membrane and a concentration range of 0.003 nM-30 μM of compounds, for a total reaction volume of 300 μl. The non-specific binding was defined using 30 μM MPEP. Reaction was terminated by rapid filtration over glass-fiber filter plates (Unifilter 96-well GF/B filter plates, Perkin-Elmer, Schwerzenbach, Switzerland) using 4×400 μl ice cold buffer using cell harvester (Filtermate, Perkin-Elmer, Downers Grove, USA). Radioactivity was determined by liquid scintillation spectrometry using a 96-well plate reader (TopCount, Perkin-Elmer, Downers Grove, USA).
The inhibition curves were generated using the Prism GraphPad program (Graph Pad Software Inc, San Diego, USA). IC50 determinations were made from data obtained from 8 point-concentration response curves using a non linear regression analysis.
The table below represents the mean of IC50 obtained from at least three independent experiments of selected molecules performed in duplicate.

T1 sequence (P31424 21-1203): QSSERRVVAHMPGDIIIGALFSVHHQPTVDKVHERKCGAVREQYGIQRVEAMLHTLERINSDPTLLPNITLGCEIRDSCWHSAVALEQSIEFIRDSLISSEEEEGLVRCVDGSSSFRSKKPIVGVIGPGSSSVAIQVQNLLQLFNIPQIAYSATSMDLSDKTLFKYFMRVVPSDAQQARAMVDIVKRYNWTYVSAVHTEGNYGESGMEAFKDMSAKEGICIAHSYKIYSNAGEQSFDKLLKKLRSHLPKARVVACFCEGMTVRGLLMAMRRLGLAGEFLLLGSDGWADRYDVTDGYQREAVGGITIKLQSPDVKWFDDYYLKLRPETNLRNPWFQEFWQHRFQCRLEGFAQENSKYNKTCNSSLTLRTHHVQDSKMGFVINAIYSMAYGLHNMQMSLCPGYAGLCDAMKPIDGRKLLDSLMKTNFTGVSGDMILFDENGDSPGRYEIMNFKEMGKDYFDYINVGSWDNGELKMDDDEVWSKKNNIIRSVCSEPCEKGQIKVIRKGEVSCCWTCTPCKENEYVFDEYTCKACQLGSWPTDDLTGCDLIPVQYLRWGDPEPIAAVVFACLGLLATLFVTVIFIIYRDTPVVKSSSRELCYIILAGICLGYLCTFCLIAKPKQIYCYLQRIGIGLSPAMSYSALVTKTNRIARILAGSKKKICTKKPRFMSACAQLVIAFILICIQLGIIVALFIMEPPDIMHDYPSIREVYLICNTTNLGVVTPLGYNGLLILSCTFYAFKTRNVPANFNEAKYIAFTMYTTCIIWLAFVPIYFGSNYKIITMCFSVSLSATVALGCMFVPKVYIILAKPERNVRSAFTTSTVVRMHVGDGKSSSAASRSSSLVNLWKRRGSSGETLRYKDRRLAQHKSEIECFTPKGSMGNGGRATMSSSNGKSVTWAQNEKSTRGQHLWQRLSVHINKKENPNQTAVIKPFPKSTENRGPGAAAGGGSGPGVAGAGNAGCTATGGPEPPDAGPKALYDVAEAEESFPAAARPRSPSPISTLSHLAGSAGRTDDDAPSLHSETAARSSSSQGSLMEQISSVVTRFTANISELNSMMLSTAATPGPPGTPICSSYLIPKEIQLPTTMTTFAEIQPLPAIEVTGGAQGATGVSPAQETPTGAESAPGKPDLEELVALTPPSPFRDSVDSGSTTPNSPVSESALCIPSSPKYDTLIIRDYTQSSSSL

IC50 [µM] | SMILES
< 10 | COc1ccc(Cc2noc(CCC#Cc3ccccn3)n2)cc1 [Example 20, 2-(4-(3-(4-Methoxybenzyl)-1,2,4-oxadiazol-5-yl)but-1-ynyl)pyridine]
< 0.05 | Brc1cccc2oc(CCC#Cc3ccccn3)nc12 [Example 86, 4-Bromo-2-(4-(pyridin-2-yl)but-3-ynyl)benzo[d]oxazole]
< 0.05 | FC(F)(F)c1cccc2nc(CCC#Cc3ccccn3)oc12 [Example 81, 7-(Trifluoromethyl)-2-(4-(pyridin-2-yl)but-3-ynyl)benzo[d]oxazole]
< 10 | COc1ccccc1-c1noc(CCC#Cc2ccccn2)n1 [Example 40, 2-(4-(3-(2-Methoxyphenyl)-1,2,4-oxadiazol-5-yl)but-1-ynyl)pyridine]
< 0.05 | COc1cccc2nc(CCC#Cc3ccccn3)oc12 [Example 94, 7-Methoxy-2-(4-(pyridin-2-yl)but-3-ynyl)benzo[d]oxazole]
< 10 | Cc1cccc(-c2noc(CCC#Cc3ccccn3)n2)c1C [Example 52, 2-(4-(3-(2,3-Dimethylphenyl)-1,2,4-oxadiazol-5-yl)but-1-ynyl)pyridine]
< 10 | C(#Cc1ccccn1)CCc1nc2ncccc2o1 [Example 78, 2-(4-(Pyridin-2-yl)but-3-ynyl)oxazolo[4,5-b]pyridine]
< 10 | FCc1cccc(C#CCCn2cc(-c3ccc(F)cc3)cn2)n1 [Example 144, 2-(Fluoromethyl)-6-(4-(4-(4-fluorophenyl)-1H-pyrazol-1-yl)but-1-ynyl)pyridine]
< 0.05 | C(#Cc1ccccn1)CCc1cn2c(-c3ccccc3)cccc2n1 [Example 69, 5-Phenyl-2-(4-(pyridin-2-yl)but-3-ynyl)-imidazo[1,2-a]pyridine]
< 10 | FC(CC#Cc1ccccn1)c1cnc2ccccc2n1 (stereo not drawn) [Example 172, 2-(1-Fluoro-4-(pyridin-2-yl)but-3-ynyl)quinoxaline]
< 10 | Fc1ccc(C#CCCc2cn3ccccc3n2)nc1 [Example 75, 2-(4-(5-Fluoropyridin-2-yl)but-3-ynyl)-imidazo[1,2-a]pyridine]
< 10 | CC(C)c1noc(CCC#Cc2ccccn2)n1 [Example 21, 2-(4-(3-Isopropyl-1,2,4-oxadiazol-5-yl)but-1-ynyl)pyridine]
< 10 | Fc1ccc2nc(CCC#Cc3ccccn3)cn2c1 [Example 74, 6-Fluoro-2-(4-(pyridin-2-yl)but-3-ynyl)-imidazo[1,2-a]pyridine]
< 10 | Fc1ccccc1Cc1noc(CCC#Cc2ccccn2)n1 [Example 17, 2-(4-(3-(2-Fluorobenzyl)-1,2,4-oxadiazol-5-yl)but-1-ynyl)pyridine]
< 0.05 | Cc1nc(C#CCCc2nc3ccccc3s2)cs1 [Example 112, 2-(4-(2-Methylthiazol-4-yl)but-3-ynyl)benzo[d]thiazole]
< 10 | FC(F)(F)Oc1ccccc1-c1noc(CCC#Cc2ccccn2)n1 [Example 61, 2-(4-(3-(2-(Trifluoromethoxy)phenyl)-1,2,4-oxadiazol-5-yl)but-1-ynyl)pyridine]
< 0.05 | Cc1cccc(C#CCCc2nc3ccccc3s2)n1 [Example 114, 2-(4-(6-Methylpyridin-2-yl)but-3-ynyl)benzo[d]thiazole]
< 10 | Cc1cccc2oc(CCC#Cc3ccccn3)nc12 [Example 30, 4-Methyl-(2-(4-pyridin-2-yl)but-3-ynyl)benzo[d]oxazole]
< 10 | C(#Cc1ccccn1)CCc1csc(-c2ccccc2)n1 [Example 14, 2-(4-(2-Phenylthiazol-4-yl)but-1-ynyl)pyridine]
< 0.05 | Clc1cccc2nn(CCC#Cc3ccccn3)nc12 [Example 146, 4-Chloro-2-(4-(pyridin-2-yl)but-3-ynyl)-2H-benzo[d][1,2,3]triazole]
< 0.05 | FCc1cccc(C#CCCc2cnc3cc(F)ccc3n2)n1 [Example 145, 6-Fluoro-2-(4-(6-(fluoromethyl)pyridin-2-yl)but-3-ynyl)quinoxaline]
< 10 | Clc1ccccc1-c1noc(CCC#Cc2ccccn2)n1 [Example 45, 2-(4-(3-(2-Chlorophenyl)-1,2,4-oxadiazol-5-yl)but-1-ynyl)pyridine]
< 10 | Fc1ccc2nn(CCC#Cc3ccccn3)nc2c1 [Example 127, 5-Fluoro-2-(4-(pyridin-2-yl)but-3-ynyl)-2H-benzo[d][1,2,3]triazole]

IC50 [µM] | SMILES
< 10 | CC(F)c1cccc(C#CCCn2nc3ccccc3n2)n1 (stereo not drawn) [Example 182, 2-(4-(6-(1-Fluoroethyl)pyridin-2-yl)but-3-ynyl)-2H-benzo[d][1,2,3]triazole]
< 10 | Fc1ccc(C#CCCc2nc3ccccc3o2)nc1 [Example 71, 2-(4-(5-Fluoropyridin-2-yl)but-3-ynyl)benzo[d]oxazole]
< 0.5 | Cn1c(CCC#Cc2ccccn2)nc2ccccc21 [Example 107, 1-Methyl-2-(4-(pyridin-2-yl)but-3-ynyl)-1H-benzo[d]imidazole]
< 10 | Fc1ccc(-c2noc(CCC#Cc3ccccn3)n2)cc1 [Example 9, 2-(4-(3-(4-Fluorophenyl)-1,2,4-oxadiazol-5-yl)but-1-ynyl)pyridine]
< 0.5 | CN(C(=O)CCC#Cc1ccccn1)c1ccc(F)cc1 [Example 13, N-(4-Fluorophenyl)-N-methyl-5-(pyridin-2-yl)pent-4-ynamide]
< 10 | Cc1ccc(C)c2sc(CCC#Cc3ccccn3)nc12 [Example 102, 4,7-Dimethyl-2-(4-(pyridin-2-yl)but-3-ynyl)benzo[d]thiazole]
< 10 | O=[N+]([O-])c1cccc2nn(CCC#Cc3cccc(CF)n3)nc12 [Example 161, 2-(4-(6-(Fluoromethyl)pyridin-2-yl)but-3-ynyl)-4-nitro-2H-benzo[d][1,2,3]triazole]
< 0.05 | CN(CCC#Cc1cccc(CF)n1)S(=O)(=O)c1ccccc1Cl [Example 209, 2-Chloro-N-(4-(6-(fluoromethyl)pyridin-2-yl)but-3-ynyl)-N-methylbenzene sulfonamide]
< 10 | Cc1ccc(C)c(-c2noc(CCC#Cc3ccccn3)n2)c1 [Example 54, 2-(4-(3-(2,5-Dimethylphenyl)-1,2,4-oxadiazol-5-yl)but-1-ynyl)pyridine]
< 10 | CN(C(=O)CCC#Cc1ccccn1)c1cccc(Cl)c1 [Example 99, N-(3-Chlorophenyl)-N-methyl-5-(pyridin-2-yl)pent-4-ynamide]
< 0.05 | Fc1cccc2nc(CCC#Cc3ccccn3)oc12 [Example 64, 7-Fluoro-2-(4-(pyridin-2-yl)but-3-ynyl)benzo[d]oxazole]
< 10 | Cc1ccc(-c2noc(CCC#Cc3ccccn3)n2)cc1 [Example 44, 2-(4-(3-p-Tolyl-1,2,4-oxadiazol-5-yl)but-1-ynyl)pyridine]
< 10 | C(#Cc1ccccn1)CCc1cc(-c2ccccc2)no1 [Example 111, 2-(4-(3-Phenylisoxazol-5-yl)but-1-ynyl)pyridine]
< 10 | Fc1ccc(C#CCCc2nc3ccccc3s2)nc1 [Example 113, 2-(4-(5-Fluoropyridin-2-yl)but-3-ynyl)benzo[d]thiazole]
< 0.05 | Cc1cccc(C#CCCc2ccc3ccccc3n2)n1 [Example 128, 2-(4-(6-Methylpyridin-2-yl)but-3-ynyl)quinoline]
< 0.5 | C(#Cc1ccccn1)CCn1cc2ccccc2n1 [Example 108, 2-(4-(Pyridin-2-yl)but-3-ynyl)-2H-indazole]
< 10 | FCc1cccc(C#CCCc2cn3cccc(-c4ccccc4)c3n2)n1 [Example 227, 2-(4-(6-(Fluoromethyl)pyridin-2-yl)but-3-ynyl)-8-phenyl-imidazo[1,2-a]pyridine]
< 10 | CN(CCC#Cc1ccccn1)S(=O)(=O)c1ccccc1Cl [Example 207, 2-Chloro-N-methyl-N-(4-(pyridin-2-yl)but-3-ynyl)benzenesulfonamide]
< 10 | Fc1cccc(C#CCCc2nc3ccccc3s2)n1 [Example 117, 2-(4-(6-Fluoropyridin-2-yl)but-3-ynyl)benzo[d]thiazole]
< 10 | Clc1nccc(C#CCCc2nc3ccccc3o2)n1 [Example 84, 2-(4-(2-Chloropyrimidin-4-yl)but-3-ynyl)benzo[d]oxazole]
< 10 | O=CNc1cccc(C#CCCn2nc3ccccc3n2)n1 [Example 175, N-(6-(4-(2H-Benzo[d][1,2,3]triazol-2-yl)but-1-ynyl)pyridin-2-yl)formamide]
< 10 | Clc1cccc(C#CCCn2nc3ccccc3n2)n1 [Example 180, 2-(4-(6-Chloropyridin-2-yl)but-3-ynyl)-2H-benzo[d][1,2,3]triazole]
